Test results taken from the supplement of paper PMC10307832.

Legend:
Assay in all cases: relative viability (nuclei count vs DMSO), 5 days (fraction); higher = more cells survive
[1] = test system: EKVX
Procedure, shortened: (§1)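 Five library-drug doses in √10 steps were combined with a fixed anchor-drug dose, or a single drug was given alone, by pin tool to lung cancer cell lines in 1536-well plates the day after seeding. Nuclei were stained and counted after 5 days. Relative viability is the nuclei count in treated wells over that in vehicle wells, taken as the median of duplicate plates.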

[2] = test system: 201T
Procedure, shortened: as §1

[3] = test system: NCI-H1734
Procedure, shortened: as §1

[4] = test system: HCC-15
Procedure, shortened: as §1

[5] = test system: HCC-78
Procedure, shortened: as §1

[6] = test system: A-427
Procedure, shortened: as §1

[7] = test system: NCI-H1915
Procedure, shortened: as §1

[8] = test system: NCI-H647
Procedure, shortened: as §1

[9] = test system: NCI-H522
Procedure, shortened: as §1

[10] = test system: NCI-H1993
Procedure, shortened: as §1

[11] = test system: PC-14
Procedure, shortened: as §1

[12] = test system: LK-2
Procedure, shortened: as §1

[13] = test system: HOP-62
Procedure, shortened: as §1

[14] = test system: COR-L 105
Procedure, shortened: as §1

[15] = test system: NCI-H661
Procedure, shortened: as §1

[16] = test system: COR-L23
Procedure, shortened: as §1

[17] = test system: SK-MES-1
Procedure, shortened: as §1

[18] = test system: BEN
Procedure, shortened: as §1

[19] = test system: EMC-BAC-2
Procedure, shortened: as §1

[20] = test system: NCI-H2405
Procedure, shortened: as §1

[21] = test system: HCC-366
Procedure, shortened: as §1

[22] = test system: NCI-H460
Procedure, shortened: as §1

Structure (SMILES): CCNC(=O)c1noc(-c2cc(C(C)C)c(O)cc2O)c1-c1ccc(CN2CCOCC2)cc1 [Luminespib] + CC(=O)Nc1cccc(-n2c(=O)n(C3CC3)c(=O)c3c(Nc4ccc(I)cc4F)n(C)c(=O)c(C)c32)c1 [Trametinib] (partner 0.02 µM)
- relative viability ([1]; first compound 0.002 µM): 0.391
- relative viability ([1]; first compound 0.006325 µM): 0.326
- relative viability ([1]; first compound 0.02 µM): 0.219
- relative viability ([1]; first compound 0.06325 µM): 0.165
- relative viability ([1]; first compound 0.2 µM): 0.122
- relative viability ([2]; first compound 0.002 µM): 0.667
- relative viability ([2]; first compound 0.006325 µM): 0.706
- relative viability ([2]; first compound 0.02 µM): 0.675
- relative viability ([2]; first compound 0.06325 µM): 0.67
- relative viability ([2]; first compound 0.2 µM): 0.674
- relative viability ([3]; first compound 0.002 µM): 0.65
- relative viability ([3]; first compound 0.006325 µM): 0.586
- relative viability ([3]; first compound 0.02 µM): 0.579
- relative viability ([3]; first compound 0.06325 µM): 0.199
- relative viability ([3]; first compound 0.2 µM): 0.172
- relative viability ([4]; first compound 0.002 µM): 0.394
- relative viability ([4]; first compound 0.006325 µM): 0.364
- relative viability ([4]; first compound 0.02 µM): 0.391
- relative viability ([4]; first compound 0.06325 µM): 0.258
- relative viability ([4]; first compound 0.2 µM): 0.13
- relative viability ([5]; first compound 0.002 µM): 0.74
- relative viability ([5]; first compound 0.006325 µM): 0.61
- relative viability ([5]; first compound 0.02 µM): 0.572
- relative viability ([5]; first compound 0.06325 µM): 0.874
- relative viability ([5]; first compound 0.2 µM): 0.512
- relative viability ([6]; first compound 0.002 µM): 0.771
- relative viability ([6]; first compound 0.006325 µM): 0.74
- relative viability ([6]; first compound 0.02 µM): 0.632
- relative viability ([6]; first compound 0.06325 µM): 0.607
- relative viability ([6]; first compound 0.2 µM): 0.281
- relative viability ([7]; first compound 0.002 µM): 0.316
- relative viability ([7]; first compound 0.006325 µM): 0.287
- relative viability ([7]; first compound 0.02 µM): 0.244
- relative viability ([7]; first compound 0.06325 µM): 0.254
- relative viability ([7]; first compound 0.2 µM): 0.161
- relative viability ([8]; first compound 0.002 µM): 0.507
- relative viability ([8]; first compound 0.006325 µM): 0.508
- relative viability ([8]; first compound 0.02 µM): 0.195
- relative viability ([8]; first compound 0.06325 µM): 0.0973
- relative viability ([8]; first compound 0.2 µM): 0.0815
- relative viability ([9]; first compound 0.002 µM): 0.721
- relative viability ([9]; first compound 0.006325 µM): 0.716
- relative viability ([9]; first compound 0.02 µM): 0.693
- relative viability ([9]; first compound 0.06325 µM): 0.635
- relative viability ([9]; first compound 0.2 µM): 0.501
- relative viability ([10]; first compound 0.002 µM): 0.562
- relative viability ([10]; first compound 0.006325 µM): 0.424
- relative viability ([10]; first compound 0.02 µM): 0.488
- relative viability ([10]; first compound 0.06325 µM): 0.461
- relative viability ([10]; first compound 0.2 µM): 0.474
- relative viability ([11]; first compound 0.002 µM): 0.738
- relative viability ([11]; first compound 0.006325 µM): 0.652
- relative viability ([11]; first compound 0.02 µM): 0.243
- relative viability ([11]; first compound 0.06325 µM): 0.0663
- relative viability ([11]; first compound 0.2 µM): 0.0601
- relative viability ([12]; first compound 0.002 µM): 0.834
- relative viability ([12]; first compound 0.006325 µM): 0.711
- relative viability ([12]; first compound 0.02 µM): 0.637
- relative viability ([12]; first compound 0.06325 µM): 0.164
- relative viability ([12]; first compound 0.2 µM): 0.166
- relative viability ([13]; first compound 0.002 µM): 0.37
- relative viability ([13]; first compound 0.006325 µM): 0.351
- relative viability ([13]; first compound 0.02 µM): 0.311
- relative viability ([13]; first compound 0.06325 µM): 0.309
- relative viability ([13]; first compound 0.2 µM): 0.183
- relative viability ([14]; first compound 0.002 µM): 0.46
- relative viability ([14]; first compound 0.006325 µM): 0.43
- relative viability ([14]; first compound 0.02 µM): 0.384
- relative viability ([14]; first compound 0.06325 µM): 0.265
- relative viability ([14]; first compound 0.2 µM): 0.278
- relative viability ([15]; first compound 0.002 µM): 0.56
- relative viability ([15]; first compound 0.006325 µM): 0.553
- relative viability ([15]; first compound 0.02 µM): 0.382
- relative viability ([15]; first compound 0.06325 µM): 0.265
- relative viability ([15]; first compound 0.2 µM): 0.256
- relative viability ([16]; first compound 0.002 µM): 0.569
- relative viability ([16]; first compound 0.006325 µM): 0.462
- relative viability ([16]; first compound 0.02 µM): 0.223
- relative viability ([16]; first compound 0.06325 µM): 0.0665
- relative viability ([16]; first compound 0.2 µM): 0.0604
- relative viability ([17]; first compound 0.002 µM): 0.551
- relative viability ([17]; first compound 0.006325 µM): 0.469
- relative viability ([17]; first compound 0.02 µM): 0.576
- relative viability ([17]; first compound 0.06325 µM): 0.177
- relative viability ([17]; first compound 0.2 µM): 0.166
- relative viability ([18]; first compound 0.002 µM): 1.11
- relative viability ([18]; first compound 0.006325 µM): 1
- relative viability ([18]; first compound 0.02 µM): 0.481
- relative viability ([18]; first compound 0.06325 µM): 0.748
- relative viability ([18]; first compound 0.2 µM): 0.341
- relative viability ([19]; first compound 0.002 µM): 0.857
- relative viability ([19]; first compound 0.02 µM): 0.643
- relative viability ([19]; first compound 0.06325 µM): 0.619
- relative viability ([19]; first compound 0.2 µM): 0.247
- relative viability ([20]; first compound 0.002 µM): 0.669
- relative viability ([20]; first compound 0.02 µM): 0.515
- relative viability ([20]; first compound 0.06325 µM): 0.252
- relative viability ([20]; first compound 0.2 µM): 0.202
- relative viability ([21]; first compound 0.002 µM): 0.354
- relative viability ([21]; first compound 0.006325 µM): 0.363
- relative viability ([21]; first compound 0.02 µM): 0.349
- relative viability ([21]; first compound 0.06325 µM): 0.026
- relative viability ([21]; first compound 0.2 µM): 0.0301
- relative viability ([22]; first compound 0.002 µM): 0.205
- relative viability ([22]; first compound 0.006325 µM): 0.124
- relative viability ([22]; first compound 0.02 µM): 0.0112
- relative viability ([22]; first compound 0.06325 µM): 0.0128
- relative viability ([22]; first compound 0.2 µM): 0.0152
